PMC12807480, “Protectin DX resolves fracture-induced postoperative pain in mice via neuronal signaling and GPR37-activated macrophage efferocytosis” (The Journal of Clinical Investigation, 2026)

Tests used:
GPR37 [1] = target: T1, GPR37 (Homo sapiens, UniProt O15354); test: Ca2+ imaging in HEK293T cells expressing human GPR37 versus mock; lipid overlay dot blot with GPR37-HEK293T lysate; type: cell-based
T1 sequence (O15354 27-613): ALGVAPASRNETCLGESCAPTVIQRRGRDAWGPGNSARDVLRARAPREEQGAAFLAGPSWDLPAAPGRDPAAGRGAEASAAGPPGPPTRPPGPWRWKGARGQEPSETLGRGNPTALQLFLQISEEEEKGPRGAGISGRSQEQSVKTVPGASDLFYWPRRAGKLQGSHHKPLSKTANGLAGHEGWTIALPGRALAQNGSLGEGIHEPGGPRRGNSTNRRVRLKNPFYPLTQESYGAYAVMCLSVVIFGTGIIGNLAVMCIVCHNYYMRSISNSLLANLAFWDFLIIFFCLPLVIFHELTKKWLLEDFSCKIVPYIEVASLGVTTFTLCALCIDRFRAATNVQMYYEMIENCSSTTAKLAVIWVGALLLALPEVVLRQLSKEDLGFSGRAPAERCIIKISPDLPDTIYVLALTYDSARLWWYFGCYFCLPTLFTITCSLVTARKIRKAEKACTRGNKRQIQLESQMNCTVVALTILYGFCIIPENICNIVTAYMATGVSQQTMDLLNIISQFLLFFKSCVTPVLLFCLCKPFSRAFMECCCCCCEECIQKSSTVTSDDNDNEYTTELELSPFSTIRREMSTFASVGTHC

GPR37 [2] = target: T1, GPR37; test: lipid overlay dot blot: ligand-coated PVDF membrane with lysates of HEK293T cells with and without GPR37

Compound | EC50 (GPR37 [1]) | lipid overlay dot blot: ligand-coated PVDF membrane with lysates of HEK293T cell (GPR37 [2])
CC/C=C\C[C@H](O)/C=C/C=C\C=C\[C@@H](O)C/C=C\C/C=C\CCC(=O)O [PDX, Protectin DX] | 0.0235 µM | 
CC/C=C\C[C@H](O)\C=C/C=C/C=C/[C@H](O)C/C=C\C/C=C\CCC(=O)O [NPD1, neuroprotectin D1] |  | Lipid overlay assays further confirmed direct binding of PDX and NPD1 to GPR37
